pIC50: −log10 of the molar value. Counter-ions that a name gives are not always drawn. Like-named read-outs stand apart in the source and are kept apart here.
How the values were obtained:
[1] = target: T1, hormone-sensitive lipase (HSL) (Rattus norvegicus, UniProt P15304); experiment: HSL enzyme assay: [3H]trioleoylglycerol hydrolysis by partially purified HSL; assay type: biochemical
T1 construct: Isolated rat fat cells were obtained from epididymal adipose tissue; from tissue; host or cells: rat epididymal adipose tissue (isolated fat cells, Wistar rats)
T1 sequence (P15304 1-768 isoform P15304-2): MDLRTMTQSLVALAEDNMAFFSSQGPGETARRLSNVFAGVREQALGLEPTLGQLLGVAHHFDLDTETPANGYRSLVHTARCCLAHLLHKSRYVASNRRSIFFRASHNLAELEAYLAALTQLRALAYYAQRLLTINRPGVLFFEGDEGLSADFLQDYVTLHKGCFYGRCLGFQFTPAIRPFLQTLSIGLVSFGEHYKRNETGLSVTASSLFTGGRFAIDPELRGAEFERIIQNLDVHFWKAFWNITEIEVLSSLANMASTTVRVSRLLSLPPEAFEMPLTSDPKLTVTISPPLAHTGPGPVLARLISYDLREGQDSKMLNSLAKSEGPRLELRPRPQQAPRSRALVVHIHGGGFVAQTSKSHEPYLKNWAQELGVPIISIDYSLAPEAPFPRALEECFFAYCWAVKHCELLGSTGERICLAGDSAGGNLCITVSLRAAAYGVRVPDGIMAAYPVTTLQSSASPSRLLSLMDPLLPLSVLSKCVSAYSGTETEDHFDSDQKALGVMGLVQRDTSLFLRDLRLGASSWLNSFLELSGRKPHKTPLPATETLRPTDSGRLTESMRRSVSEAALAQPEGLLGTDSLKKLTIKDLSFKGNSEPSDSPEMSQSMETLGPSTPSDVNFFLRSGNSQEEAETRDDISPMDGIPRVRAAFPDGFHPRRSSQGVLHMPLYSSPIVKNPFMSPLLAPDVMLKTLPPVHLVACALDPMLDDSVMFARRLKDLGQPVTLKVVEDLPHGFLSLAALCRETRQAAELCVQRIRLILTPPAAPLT
Method: The effect of the compounds of the invention on HSL was tested using the following enzyme assay system:
Preparation of Partially Purified HSL:
The fat cells from 10 rats were washed three times by flotation with 50 ml each time of homogenization buffer ([…] tris/HCl, pH 7.4, 0.25 M sucrose, 1 mM EDTA, 1 mM DTT, 10 μg/ml leupeptin, 10 μg/ml antipain, 20 μg/ml pepstatin) and finally taken up in 10 ml of homogenization buffer. The fat cells were homogenized in a Teflon-in-glass homogenizer (Braun-Melsungen) by 10 strokes at 1500 rpm and 15° C. The homogenate was centrifuged (Sorvall SM24 tubes, 5000 rpm, 10 min, 4° C.). The subnatant between the fatty layer at the top and the pellet was removed and the centrifugation was repeated. The subnatant resulting therefrom was recentrifuged (Sorvall SM24 tubes, 20000 rpm, 45 min, 4° C.). […] After the mixture had been incubated at 4° C. for 60 min (shaking at 15-min intervals), it was centrifuged (Sorvall SM24 tubes, 3000 rpm, 10 min, 4° C.). The supernatant was adjusted to pH 5.2 by adding glacial acetic acid and incubated at 4° C. for 30 min. The precipitates were collected by centrifugation (Sorvall SS34, 12000 rpm, 10 min, 4° C.) and suspended in 2.5 ml of 20 mM tris/HCl, pH 7.0,1 mM EDTA, 65 mM NaCl, 13% sucrose, 1 mM DTT, 10 μg/ml leupeptin/pepstatin/antipain. The suspension was dialyzed against 25 mM tris/HCl, pH 7.4, 50% glycerol, 1 mM DTT, 10 μg/ml leupeptin, pepstatin, antipain at 4° C. overnight and then loaded onto a hydroxy apatite column (0.1 g per 1 ml of suspension, equilibrated with 10 mM potassium phosphate, pH 7.0, 30% glycerol, 1 mM DTT). The column was washed with four volumes of equilibration buffer at a flow rate of 20 to 30 ml/h. The HSL was eluted with one volume of equilibration buffer containing 0.5 M potassium phosphate, and then dialyzed (see above) and concentrated 5- to 10-fold by ultrafiltration (Amicon Diaflo PM 10 filter) at 4° C. The partially purified HSL can be stored at −70° C. for 4 to 6 weeks.
To prepare the substrate, 25-50 μCi of [^3H]trioleoylglycerol (in toluene), 6.8 μmol of unlabeled trioleoylglycerol and 0.6 mg of phospholipids (phosphatidylcholine/phosphatidylinositol 3:1 w/v) were mixed, dried with N2 and then taken up in 2 ml of 0.1 M KPi (pH 7.0) by ultrasonic treatment (Branson 250, microtip, setting 1-2, 2×1 min at 1-min intervals). After addition of 1 ml of KPi and renewed ultrasonic treatment (4×30 sec on ice in 30-sec intervals), 1 ml of 20% BSA (in KPi) was added (final concentration of trioleoylglycerol 1.7 mM). For the reaction, 100 μl of substrate solution were pipetted into 100 μl of HSL solution (HSL prepared as above, diluted in 20 mM KPi, pH 7.0, 1 mM EDTA, 1 mM DTT, 0.02% BSA, 20 μg/ml pepstatin, 10 μg/ml leupeptin) and incubated at 37° C. for 30 min. […] After phase separation, one equivalent of the upper phase (1 ml) was removed and the radioactivity was determined by liquid scintillation measurement.
Substances were normally tested in four independent mixtures. The inhibition of the HSL enzymatic activity by a test substance was determined by comparison with an uninhibited control reaction. The IC50 was calculated via an inhibition plot with at least 10 concentrations of the test substance. The data was analyzed using the software package GRAPHIT, Elsevier-BIOSOFT.

[2] = partially purified HSL from rat fat cells, [3H]trioleoylglycerol substrate, 37° C., 30 min, read-out: IC50

Compound | pIC50 [1, 2] | melting point | also measured
5-Methoxy-3-[3-[(3-trifluoromethylphenoxy)benzylamino]phenyl]-3H-[1,3,4]oxadiazol-2-one trifluoroacetate [Example 166] | 6.70 | – | –
COc1nn(-c2ccc(-n3c(C)ccc3C)c(C)c2)c(=O)o1 [Example 54, 5-Methoxy-3-(4-(2,5-dimethylpyrrol-1-yl)-3-methylphenyl)-3H-(1,3,4)oxadiazol-2-one] | 6.00 | – | –
COc1nn(-c2ccc(NC(=O)c3ccc(C(C)(C)C)cc3)cc2)c(=O)o1 [Example 69, 5-Methoxy-3-(4-(4-t-butylbenzoylamino)phenyl)-3H-(1,3,4)oxadiazol-2-one] | 7.52 | – | –
Cc1cc(-n2nc(OC(C)(C)C)oc2=O)ccc1NC(=O)OCc1ccccc1 [Example 78, 5-tert-Butoxy-3-(3-methyl-4-benzyloxycarbonylaminophenyl)-3H-(1,3,4)oxadiazol-2-one] | – | 113 °C | –
COc1nn(-c2ccc(NC(=O)NCc3cccnc3)c(C)c2)c(=O)o1 [Example 82, 5-Methoxy-3-(3-methyl-4-(pyrid-3-ylmethylaminocarbonylamino)phenyl)-3H-(1,3, 4)oxadiazol-2-one] | – | 229 °C | –
COc1nn(-c2ccc(NC(=O)c3ccc(C(C)(C)C)cc3)c(F)c2)c(=O)o1 [Example 87, 5-Methoxy-3-(3-fluoro-4-(4-tert-butylbenzoylamino)phenyl)-3H-(1,3,4)oxadiazol-2-one] | – | 144 °C | –
COc1nn(-c2ccc(NC(=O)OCC(F)(F)F)c(C)c2)c(=O)o1 [Example 88, 5-Methoxy-3-(3-methyl-4-(2,2,2-trifluoroethoxycarbonylamino)phenyl)-3H-(1,3, 4)oxadiazol-2-one] | – | 141 °C | –
COc1nn(-c2ccc(NC(=O)N3CCCCC3)c(C)c2)c(=O)o1 [Example 89, 5-Methoxy-3-(3-methyl-4-piperidinocarbonylaminophenyl)-3H-(1,3,4)oxadiazol-2-one] | – | 154 °C | –
COc1ccc2cc(C(=O)Nc3ccc(-n4nc(OC)oc4=O)cc3)oc2c1 [Example 90, 5-Methoxy-3-(4-(6-methoxybenzofuran-2-yl-carbonylamino)phenyl)-3H-(1,3,4)oxadiazol-2-one] | – | 191 °C | –
COc1nn(-c2ccc(NS(=O)(=O)c3ccc(OC)c(OC)c3)cc2)c(=O)o1 [Example 92, 3,4-Dimethoxy-N-[4-(5-methoxy-2-oxo-[1,3,4]oxadiazol-3-yl)-phenyl]benzenesulfon-amide] | 6.60 | – | –
CCCCCCCCCCC(=O)Nc1ccc(-n2nc(OC)oc2=O)cc1 [Example 107, Undecanoic acid [4-(5-methoxy-2-oxo-[1,3,4]oxadiazol-3-yl)phenyl]amide] | 6.92 | – | –
COc1nn(-c2cccc(NC(=O)Nc3c(OC)cccc3OC)c2)c(=O)o1 [Example 128, 1-(2,6-Dimethoxyphenyl)-3-[3-(5-methoxy-2-oxo-[1,3,4]oxadiazol-3-yl)phenyl]urea] | 6.22 | – | –
COc1nn(-c2ccc(NCc3ccc(C#N)cc3)cc2)c(=O)o1 [Example 130, 4-[[4-(5-Methoxy-2-oxo-[1,3,4]oxadiazol-3-yl)phenylamino]methyl]-benzonitrile tri-fluoroacetate] | – | – | pIC50 [1]: 6.30
COc1nn(-c2ccc(NCC3CCCCC3)cc2)c(=O)o1 [Example 139, 3-[4-(Cyclohexylmethylamino)phenyl]-5-methoxy-3H-[1,3,4]oxadiazol-2-one] | 6.40 | – | –
CCCCCCOc1ccc(CNc2ccc(-n3nc(OC)oc3=O)cc2)cc1 [Example 142, 3-[4-(4-Hexyloxybenzylamino)phenyl]-5-methoxy-3H-[1,3,4]oxadiazol-2-one trifluoroacetate] | 6.70 | – | –

The next lines start with results.

pIC50 [1, 2] | melting point | Compound | also measured
6.00 | – | COc1nn(-c2ccc(NC(=O)Cc3ccc(Cl)cc3)cc2)c(=O)o1 [Example 30, 5-Methoxy-3-(4-(4-chlorophenylacetylamino)phenyl)-3H-(1,3,4)oxadiazol-2-one] | –
7.00 | – | COc1nn(-c2ccc(NC(=O)OCc3ccccc3)c(C)c2)c(=O)o1 [Example 41, 5-Methoxy-3-(4-(benzyloxycarbonylamino)-3-methylphenyl)-3H-(1,3,4)oxadiazol-2-one] | –
6.10 | – | COc1nn(-c2cccc(NCc3ccccc3)c2)c(=O)o1 [Example 58, 5-Methoxy-3-(3-benzylaminophenyl)-3H-(1,3,4)oxadiazol-2-one] | –
6.70 | – | COc1nn(-c2ccc(NC(=O)OCc3ccccc3)c(OCc3ccc(F)cc3)c2)c(=O)o1 [Example 60, 5-Methoxy-3-(3-(4-fluorobenzyloxy)-4-benzyloxycarbonylaminophenyl)-3H-(1,3,4)oxadiazol-2-one] | –
– | 206 °C | COc1nn(-c2ccc(NC(=O)NC3Cc4ccccc4C3)c(C)c2)c(=O)o1 [Example 81, 5-Methoxy-3-(3-methyl-4-(indan-2-ylaminocarbonylamino)phenyl)-3H-(1,3,4)oxadiazol-2-one] | –
– | 232 °C | COc1nn(-c2ccc(NC(=O)OCc3cccnc3)c(C)c2)c(=O)o1 [Example 83, 5-Methoxy-3-(3-methyl-4-(pyrid-3-ylmethoxycarbonylamino)phenyl)-3H-(1,3,4)oxadiazol-2-one] | –
– | 159 °C | COc1nn(-c2ccc(NC(=O)c3ccc(C(F)(F)F)cc3)c(OCc3ccccc3)c2)c(=O)o1 [Example 86, 5-Methoxy-3-(3-benzyloxy-4-(4-trifluoromethylbenzoylamino)phenyl)-3H-(1,3,4)oxadiazol-2-one] | –
7.52 | – | COc1nn(-c2ccc(NC(=O)c3ccccc3F)cc2)c(=O)o1 [Example 97, 2-Fluoro-N-[4-(5-methoxy-2-oxo-[1,3,4]oxadiazol-3-yl)phenyl]-benzamide] | –
7.00 | – | COc1nn(-c2ccc(NC(=O)CCCC(=O)c3ccccc3)cc2)c(=O)o1 [Example 116, 5-Oxo-5-phenylpentanoic acid [4-(5-methoxy-2-oxo-[1,3,4]-oxadiazol-3-yl)phenyl]amide] | –
6.30 | – | COc1nn(-c2ccc(NCc3ccc(OCc4ccccc4)cc3)cc2)c(=O)o1 [Example 136, 3-[4-(4-Benzyloxybenzylamino)phenyl]-5-methoxy-3H-[1,3,4]oxadiazol-2-one trifluoroacetate] | –
6.70 | – | CCOc1ccccc1NC(=O)Nc1ccc(-n2nc(OC)oc2=O)cc1 [Example 152, 1-(2-Ethoxyphenyl)-3-[4-(5-methoxy-2-oxo-[1,3,4]oxadiazol-3-yl)phenyl]urea] | –

From patent publication US6369088B2, “Substituted 3-phenyl-5-alkoxy-1,3,4-oxadiazol-2-ones, their preparation and their use as pharmaceuticals” (Aventis Pharma Deutschland GmbH, priority 2000, dated 2002)
